Source: patent publication US9492436B2, “Azabenzimidazole derivatives” (Boehringer Ingelheim International GmbH, priority 2013, dated 2016)
In brackets after ≈: the same amount, converted by molar mass.

Experiments:
[1] = target: T1, AMPK complex 1 (containing alpha1beta1gamma1) (Homo sapiens, UniProt Q13131+Q9Y478); assay: In vitro AMPK activation assay (ADP-Glo Kinase Assay); format: biochemical; conditions: 30 μM ATP, 1 μM peptide, 60 min, room temperature
T1 construct: GST (Glutathion S transferase) (N); made in house; host or cells: baculovirus; virus made in Sf9, expression in High Five cells
Source text: Activated AMPK complex 1 (containing alpha1beta1gamma1) was obtained from baculovirus expression system. The gene encoding AMPK alpha1 was cloned into the pACG2T vector (BD Biosciences) to obtain a N-terminal Glutathion S transferase (GST)-fusion protein. The genes encoding AMPK beta 1 and gamma1 were cloned into the p2Bac dual multiple cloning site vector (Invitrogen) with beta1 under the control of the p10 promoter and gamma1 under the control of the PH promoter. The transfer vectors containing AMPK were co-transfected individually with AcPNV BacMagic-3 DNA (EMD Millipore) in Sf9 cells and the recombinant baculoviruses were harvested after 5 days, followed by 3 rounds of amplification of the virus stock in Sf9 cells. AMPK (alpha1beta1gamma1) was expressed in High Five 5 cells by co-infection of recombinant alpha1 virus and recombinant beta1/gamma1 virus for 72 h at 27° C. Cells were harvested by centrifugation and lysed by 3 freeze/thaw cycles in PBS with 10% glycerol and protease inhibitor cocktail (Roche). After centrifugation AMPK a1b1g1 in the supernatant was captured by immobilized glutathione (GE Healthcare), impurities were washed away with PBS and AMPK alpha1beta1gamma1 was eluted with PBS containing 20 mM reduced gluthathione. The protein buffer was then exchanged to PBS with 10% glycerol and protein concentration was determined by UV absorbance.
The white 384-well Optiplates (cat.no. 6007299) were purchased from PerkinElmer. The V9101 ADP-Glo Kinase Assay and ultra pure ATP (V915A) was purchased from Promega. The substrate for AMPK (NH2-HMRSAMSGLHLVKRR_CONH2) was purchased from Upstate (12-355).
Compounds were tested in either serial dilutions or single dose concentrations. The serial compound dilutions were prepared in 100% DMSO automatically. The final DMSO concentration in the assay was 0.1%.
The Compound Stock Solutions were 10 mM in 100% DMSO. The compounds were solubilised at room temperature.
In the 384-well plates 1.25 ul of test compound in assay buffer was mixed with 1.25 ul of AMPK and 1.25 μl of the peptide (final concentration of 1 μM) and 1.25 μl of ATP (final concentration of 30 μM), both dissolved in assay buffer. This step was followed by an incubation time of 60 min. Then 5 μl of ADP Glo Reagent was added. This was followed by 40 min of incubation. Then 10 μl of Kinase Detection Reagent was admixed. The plates were sealed and after an incubation period of 30 min, the luminescence signal was measured in an Envision reader. All incubation steps were accomplished at room temperature.
Each assay microtiter plate contained wells with vehicle controls instead of compound (0.1% DMSO in water) as reference for the low signal (100% CTL, low signal), and wells with serial dilutions of AMP (final 30 μM) as reference for high signals.
The luminescence signal generated was proportional to the ADP concentration produced and was correlated with AMPK activity. The analysis of the data was performed by the calculation of the percentage of ATP consumption of AMPK in the presence of the test compound compared to the consumption of ATP in the presence of AMPK without compound. (RLU(sample)/RLU(low control))*100[RLU=relative luminescence units]
An activator of the AMPK enzyme gave values above 100% CTL.
EC50 values based on dose response curves are calculated with the XIFIT software using the 4 Parameter Logistic Model or Sigmoidal Dose-Response Model.

[2] = Aqueous solubility (buffer vs acetonitrile/water, 24 h shaking, LC-UV); format: physicochemical; conditions: kinetic from dmso stock, 2.5% DMSO, ">" = more than 90% dissolved
Protocol: The aqueous solubility of the compounds of the invention is determined by comparing the amount dissolved in buffer to the amount in an acetonitrile/water (1/1) solution. Starting from a 10 mM DMSO stock solution aliquots are diluted with acetonitrile/water (1/1) or buffer resp. After 24 h of shaking, the solutions are filtrated and analyzed by LC-UV. The amount dissolved in buffer is compared to the amount in the acetonitrile solution.
Solubility is usually being measured from 0.001 to 0.125 mg/ml at a DMSO concentration of 2.5%. If more than 90% of the compound is dissolved in buffer, the value is marked with “>”.

T1 sequence (Q13131 whole entry): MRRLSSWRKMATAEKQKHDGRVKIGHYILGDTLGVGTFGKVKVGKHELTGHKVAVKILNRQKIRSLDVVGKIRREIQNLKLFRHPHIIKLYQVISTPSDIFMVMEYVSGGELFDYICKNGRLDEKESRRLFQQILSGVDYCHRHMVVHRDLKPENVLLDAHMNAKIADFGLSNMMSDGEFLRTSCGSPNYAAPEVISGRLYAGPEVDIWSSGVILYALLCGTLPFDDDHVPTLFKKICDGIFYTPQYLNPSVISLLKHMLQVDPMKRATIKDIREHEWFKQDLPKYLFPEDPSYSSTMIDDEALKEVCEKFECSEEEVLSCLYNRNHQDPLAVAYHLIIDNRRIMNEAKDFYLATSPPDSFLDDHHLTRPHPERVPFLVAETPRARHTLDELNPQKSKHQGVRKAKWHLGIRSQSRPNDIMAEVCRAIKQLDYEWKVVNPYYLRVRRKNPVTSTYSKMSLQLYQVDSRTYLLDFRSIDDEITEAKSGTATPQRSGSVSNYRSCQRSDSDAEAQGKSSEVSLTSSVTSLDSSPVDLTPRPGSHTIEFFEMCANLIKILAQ
T1 sequence (Q9Y478 whole entry): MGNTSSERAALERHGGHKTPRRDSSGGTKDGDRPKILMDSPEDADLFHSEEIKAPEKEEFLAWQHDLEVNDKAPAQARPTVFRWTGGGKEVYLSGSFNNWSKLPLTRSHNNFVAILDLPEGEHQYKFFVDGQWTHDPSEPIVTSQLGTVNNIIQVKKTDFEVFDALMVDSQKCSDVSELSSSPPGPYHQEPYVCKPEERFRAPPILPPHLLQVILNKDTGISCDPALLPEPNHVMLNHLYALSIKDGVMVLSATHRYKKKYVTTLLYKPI
T1 sequence (P54619 whole entry partner): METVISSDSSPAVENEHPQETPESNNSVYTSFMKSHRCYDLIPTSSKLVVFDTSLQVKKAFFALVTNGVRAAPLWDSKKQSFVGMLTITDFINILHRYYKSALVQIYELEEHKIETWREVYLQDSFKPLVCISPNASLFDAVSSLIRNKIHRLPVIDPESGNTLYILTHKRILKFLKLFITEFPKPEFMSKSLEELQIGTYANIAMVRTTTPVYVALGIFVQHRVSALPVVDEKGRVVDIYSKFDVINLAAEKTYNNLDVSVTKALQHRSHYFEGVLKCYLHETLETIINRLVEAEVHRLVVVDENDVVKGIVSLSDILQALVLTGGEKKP

| solubility at 24 h ([2]; pH 2.2 buffer) | solubility at 24 h ([2]; pH 4.5 buffer) | solubility at 24 h ([2]; pH 6.8 buffer) | SMILES | EC50 [1] |
| --- | --- | --- | --- | --- |
| < 80 µg/mL | > 7 µg/mL | < 1 µg/mL | CS(C)(=O)=Nc1ccc(-c2ccc(-c3nc4[nH]c(O[C@@H]5CO[C@H]6[C@@H]5OC[C@H]6O)nc4cc3Cl)cc2)cn1 [Example 22, N-(5-(4-(6-Chloro-2-((3R,3aR,6R,6aR)-6-hydroxyhexahydrofuro[3,2-b]furan-3-yloxy)-3H-imidazo[4,5-b]pyridin-5-yl)phenyl)pyridin-2-yl)-S,S-dimethylsulfoximide] | 45 nM |
| 92 µg/mL (≈ 170 µM) | < 1 µg/mL | < 1 µg/mL | CN=S(C)(=O)c1ccc(-c2ccc(-c3nc4[nH]c(O[C@@H]5CO[C@H]6[C@@H]5OC[C@H]6O)nc4cc3Cl)cc2)nc1 (stereo partly drawn) [Example 28, (3R,3aR,6R,6aR)-6-(6-Chloro-5-(4-(5-(N,S-dimethylsulfonimidoyl)pyridin-2-yl)phenyl)-3H-imidazo[4,5-b]pyridin-2-yloxy)hexahydrofuro[3,2-b]furan-3-ol] | 2 nM |
| 4 µg/mL (≈ 7.37 µM) | 5 µg/mL (≈ 9.21 µM) | 13 µg/mL (≈ 23.9 µM) | CS(C)(=O)=Nc1cnc(-c2ccc(-c3nc4[nH]c(O[C@@H]5CO[C@H]6[C@@H]5OC[C@H]6O)nc4cc3Cl)cc2)nc1 [Example 34, N-(2-{4-[6-Chloro-2-((3R,3aR,6R,6aR)-6-hydroxyhexahydrofuro[3,2-b]furan-3-yloxy)-3H-imidazo[4,5-b]pyridin-5-yl]-phenyl}-pyrimidin-5-yl)-S,S-dimethylsulfoximide] | 3 nM |
| 99 µg/mL (≈ 183 µM) | < 1 µg/mL | < 1 µg/mL | CS(C)(=O)=Nc1cc(-c2ccc(-c3nc4[nH]c(O[C@@H]5CO[C@H]6[C@@H]5OC[C@H]6O)nc4cc3Cl)cc2)ccn1 [Example 36, N-(4-{4-[6-Chloro-2-((3R,3aR,6R,6aR)-6-hydroxyhexahydrofuro[3,2-b]furan-3-yloxy)-3H-imidazo[4,5-b]pyridin-5-yl]-phenyl}-pyridin-2-yl)-S,S-dimethylsulfoximide] | 15 nM |
| > 128 µg/mL | > 117 µg/mL | 88 µg/mL (≈ 162 µM) | CS(C)(=O)=Nc1ccc(-c2ccc(-c3nc4[nH]c(O[C@@H]5CO[C@H]6[C@@H]5OC[C@H]6O)nc4cc3Cl)cc2)nn1 [Example 50, N-(6-{4-[6-Chloro-2-((3R,3aR,6R,6aR)-6-hydroxyhexahydrofuro[3,2-b]furan-3-yloxy)-3H-imidazo[4,5-b]pyridin-5-yl]-phenyl}-pyridazin-3-yl)-S,S-dimethylsulfoximide] | 304 nM |
| > 146 µg/mL | 28 µg/mL (≈ 50.4 µM) | 2 µg/mL (≈ 3.6 µM) | CS(C)(=O)=NCc1ccc(-c2ccc(-c3nc4[nH]c(O[C@@H]5CO[C@H]6[C@@H]5OC[C@H]6O)nc4cc3Cl)cc2)cn1 [Example 51, N-(5-{4-[6-Chloro-2-((3R,3aR,6R,6aR)-6-hydroxyhexahydrofuro[3,2-b]furan-3-yloxy)-3H-imidazo[4,5-b]pyridin-5-yl]-phenyl}-pyridin-2-ylmethyl)-S,S-dimethylsulfoximide] | 92 nM |

The remaining lines, values behind:

| SMILES | solubility at 24 h ([2]; pH 2.2 buffer) | solubility at 24 h ([2]; pH 4.5 buffer) | solubility at 24 h ([2]; pH 6.8 buffer) | EC50 [1] |
| --- | --- | --- | --- | --- |
| CS(=O)(=NC#N)c1ccc(-c2ccc(-c3nc4[nH]c(O[C@@H]5CO[C@H]6[C@@H]5OC[C@H]6O)nc4cc3Cl)cc2)cc1 (stereo partly drawn) [Example 7, S-(4′-(6-Chloro-2-((3R,3aR,6R,6aR)-6-hydroxyhexahydrofuro[3,2-b]furan-3-yloxy)-3H-imidazo[4,5-b]pyridin-5-yl)biphenyl-4-yl)-S-methyl-N-cyano-sulfoximide] | 15 µg/mL (≈ 27.2 µM) | < 1 µg/mL | < 1 µg/mL | 1 nM |
| CS(=N)(=O)c1ccc(-c2ccc(-c3nc4[nH]c(O[C@@H]5CO[C@H]6[C@@H]5OC[C@H]6O)nc4cc3Cl)cc2)cc1 (stereo partly drawn) [Example 23, (3R,3aR,6R,6aR)-6-(6-Chloro-5-(4′-(S-methylsulfonimidoyl)biphenyl-4-yl)-3H-imidazo[4,5-b]pyridin-2-yloxy)hexahydrofuro[3,2-b]furan-3-ol] | 69 µg/mL (≈ 131 µM) | 2 µg/mL (≈ 3.8 µM) | 1 µg/mL (≈ 1.9 µM) | 10 nM |
| CS(=N)(=O)c1ccc(-c2ccc(-c3nc4[nH]c(O[C@@H]5CO[C@H]6[C@@H]5OC[C@H]6O)nc4cc3Cl)cc2)nc1 (stereo partly shown) [Example 27] | 77 µg/mL (≈ 146 µM) | < 1 µg/mL | < 1 µg/mL | 4 nM |
| CS(C)(=O)=NCC1CCN(c2ccc(-c3nc4[nH]c(O[C@@H]5CO[C@H]6[C@@H]5OC[C@H]6O)nc4cc3Cl)cc2)CC1 [Example 31, N-(1-(4-(6-Chloro-2-((3R,3aR,6R,6aR)-6-hydroxyhexahydrofuro[3,2-b]furan-3-yloxy)-3H-imidazo[4,5-b]pyridin-5-yl)phenyl)piperidin-4-ylmethyl)-S,S-dimethylsulfoximide] | > 122 µg/mL | 105 µg/mL (≈ 187 µM) | 89 µg/mL (≈ 158 µM) | 17 nM |
| CS(=N)(=O)Cc1ccc(-c2ccc(-c3nc4[nH]c(O[C@@H]5CO[C@H]6[C@@H]5OC[C@H]6O)nc4cc3Cl)cc2)cc1 (stereo partly drawn) [Example 52, (3R,3aR,6R,6aR)-6-(6-Chloro-5-(4′-(S-methylsulfonimidoylmethyl)biphenyl-4-yl)-3H-imidazo[4,5-b]pyridin-2-yloxy)hexahydrofuro[3,2-b]furan-3-ol] | 42 µg/mL (≈ 77.6 µM) | < 1 µg/mL | < 1 µg/mL | 3 nM |
| CS(C)(=N)=Nc1ccc(-c2nc3[nH]c(O[C@@H]4CO[C@H]5[C@@H]4OC[C@H]5O)nc3cc2Cl)cc1 [Example 56, N-(4-(6-Chloro-2-((3R,3aR,6R,6aR)-6-hydroxyhexahydrofuro[3,2-b]furan-3-yloxy)-3H-imidazo[4,5-b]pyridin-5-yl)phenyl)-S,S-dimethyl-sulfondiimine] | – | – | – | 41 nM |
| CN=S1(=O)CC2CN(c3ccc(-c4nc5[nH]c(O[C@@H]6CO[C@H]7[C@@H]6OC[C@H]7O)nc5cc4Cl)cc3)CC2C1 (stereo partly drawn) [Example 57, (3R,3aR,6R,6aR)-6-{6-Chloro-5-[4-(2-methylimino-2-oxo-hexahydro-2λ^6-thieno[3,4-c]pyrrol-5-yl)-phenyl]-3H-imidazo[4,5-b]pyridin-2-yloxy}-hexahydro-furo[3,2-b]furan-3-ol] | – | – | – | 118 nM |
